Data as given in patent US8900636B2, “Controlled release compositions” (Evonik Corporation, priority 2003, dated 2014).

Test: Stability of free peptide incubated in release medium (HPLC)
Format: physicochemical
Details: PBS, pH 7.2, 37° C., after 49 days
Procedure: Octreotide acetate as the free peptide was measured to be 95% intact by high-pressure liquid chromatography (HPLC) following incubation in the release medium (PBS, pH 7.2, 37° C.) after 49 days. In contrast, incubation of octreotide acetate PLGA microparticle formulations produced 55% of modified peptide species after 70 days in the release medium (PBS, pH 7.2, 37° C., Table 2). […] The masses found were consistent with random acylation, for example, peptide plus one or two glycolic or lactic acid monomers in any combination. It may be that acylation products arise from attack on PLGA fragments or the polymer backbone by nucleophilic moieties in octreotide. At a lower pH these moieties likely would be protonated reducing their nucleophilicity and consequently the amount of acylated product. It was observed that formation of acylated byproducts for octreotide acetate PLGA microparticles incubated in 100 mM sodium acetate (NaOAc, pH 4.0) buffer was reduced to 1.25% at 49 days, in marked contrast to the results for PBS buffer (55%).

## C[C@@H](O)[C@@H]1NC(=O)[C@H](CCCCN)NC(=O)[C@@H](Cc2c[nH]c3ccccc23)NC(=O)[C@H](Cc2ccccc2)NC(=O)[C@@H](NC(=O)[C@H](N)Cc2ccccc2)CSSC[C@@H](C(=O)N[C@H](CO)[C@@H](C)O)NC1=O [Octreotide acetate, octreotide acetate]
  intact peptide by HPLC: 95%
